Source: patent publication US20060292243A1, “Arsenic compounds for the treatment of the arsenic-sensitive blast-cell related diseases” (priority 2005, published 2006)
Where “and” joins values, the source holds several entries; their conditions need not be identical. Identical values can stand only once. Marks after values point to notes of the source that are not given here.

Legend:
[1] = system: white blood cells in BALF; assay: Differential white blood cell count in BALF, OVA-immunized mice; assay type: in vivo, BALB/c mice; settings: for Lymphocyte concentration in BALF / Neutrophil concentration in BALF: mean; for Eosinophil concentration in BALF / Macrophage concentration in BALF: mean ± SD
Method: (§1) BALB/c mice (female, 6-8 weeks) were immunized with ovalbumin (OVA) at day 0, 14, 21 and 28. 38 days later, animals were injected with arsenic trioxide (ATO) i.p. for 7 days and antigen challenges with OVA were performed at day 42, 43, 44. At day 45, the airway enhanced pause (PenH) values were measured. 48 hours after the last antigen challenges, the mice were sacrificed, the trachea cannulated, and bronchoalveolar lavage (BAL) was performed by four repeated lavages with balanced salt solution (HBSS) injected into the lungs via the trachea. Total cell counts were performed with a hemocytometer after staining with trypan blue, and then cytospins were prepared, and a differential count of 300 cells per slide was performed. To obtain the absolute number of each leukocyte subtype in the lavage, the percentage of each cell type was multiplied by the total number of cells that were recovered from the bronchoalveolar lavage fluid (BALF). Eotaxin in the BALF was measured via ELISA. Four groups of mice were treated as Table 3.1.
(§2) Group A mice were challenged by PBS only and then treated by PBS, too. Group B mice were immunized by ovalbumin and then treated by PBS only. Group C mice were immunized by ovalbumin and then treated by arsenic trioxide in a dosage of 2.5 mg per kg for mice. Group D mice were challenged by ovalbumin as group B and C and then treated by arsenic trioxide in a dosage of 5 mg/kg.
The white blood cells in BALF were counted and differentiated. Every kind of white cell was increased in immunized groups when in comparison with the non-immunized group.

[2] = system: PBMCs (peripheral blood mononuclear cells); assay: PI staining, cell death within all PBMCs by flowcytometry; assay type: cell-based
Text: Arsenic trioxide (Asadin®) induces differentiation and apoptosis of malignant cells in vitro and in vivo and has been used in the treatment of a variety of hematological malignancies, the main goal of this example is to try to identify the apoptotic effect of arsenic trioxide on various PBMCs (peripheral blood mononuclear cells), and the methodologies used in this invention include:
1. The isolation procedure using Ficoll Plaque for exploiting the different densities of RBCs and PBMCs to separate them.
2. The detection of apoptosis by PI staining through flowcytometry.
In the PI-based study, under different concentrations of arsenic trioxide (0, 0.5, 2.5, 5, or 10 μM), the percentages of cell death (within all PBMCs) in 24 hr and 48 hr were calculated respectively in Table 1.1.

[3] = system: OVA-specific IgE; assay: OVA-specific IgE in serum of OVA-immunized mice; assay type: in vivo, BALB/c mice
Method: as §1
Group A mice were challenged by PBS only and then treated by PBS, too. Group B mice were immunized by ovalbumin and then treated by PBS only. […]
After antigen challenges, mice serum were prepared and OVA-specific IgE values in serum were detected for evidence of immunization.

[4] = system: Trypanosoma brucei; assay: Anti-Trypanosoma test, viable cell count; assay type: cell-based
Method: Arsenic trioxide (Asadin®, 10 mg/10 ml/vial) was used to check the toxicity on the Trypanosoma brucei. Viable cell count was microscopically monitored. […] This is one third of recommended dosage of Melarsoprol (an Anti-Trypanosoma drug). Moreover, cytology observation noticed specific death morphology on cell toxicity. […] Further cytology examination on the death cells will be examined.

[5] = system: Eotaxin; assay: Eotaxin in BALF by ELISA, OVA-immunized mice; assay type: in vivo, BALB/c mice
Method: as §1, §2

[6] = system: NZB/NZW mice; assay: Survival of SLE model mice; assay type: in vivo
Method: In vivo studies on the activity of arsenic compound were carried out by using an experimental animal model of human Systemic Lupus Erythematosus. NZB/NZW denotes the mouse strain that spontaneously develops an autoimmune syndrome having notable similarities to human Systemic Lupus Erythematosus. Autoimmune disease in NZB/NZW mice is characterized by antinuclear antibodies (IgG) production about 4 months of age, and glomerulonephritis with proteinuria is developed when at 9 months of age, and that is the major cause of death (uremia).
At 24 weeks of age, mice (3 groups) were treated 3 times per week with PBS (Group I as positive control), 2.5 mg/kg of As2O3 (Group II), or 5 mg/kg of As2O3 (Group III) administered intraperitoneally. The treatment was stopped at 28 weeks of age. Mice were observed daily for clinical signs of disease and for mortality and were bled every 4 weeks for determination of anti-DNA antibody production.
Coincident with ameliorating the clinical signs of severe immune complex nephritis, a dramatic prolongation of survival was observed.

[7] = system: T lymphocytes (CD3+); assay: Caspase-3 (Phiphilux) apoptosis within gated PBMC subsets; assay type: cell-based
Text: 3. The detection of apoptosis within different subsets of PBMCs by the combination of mAb-fluorescein tandem staining and the treatment of Phiphilux through flowcytometry. Phiphilux is a substrate of caspase-3, composed of a specific oligo-peptide with its sequence subjected to functional caspase-3 cutting and, at each end of the peptide, is covalently coupled to two identical fluorophores.
Thus, the conclusion is that T lymphocytes are more sensitive to arsenic trioxide according the flow data.

[8] = Group C: OVA, ATO 2.5 mg/kg i.p. for 7 days
[9] = Group D: OVA, ATO 5 mg/kg i.p. for 7 days

arsenic trioxide was tested, and the “Lymphocyte concentration in BALF” value ([1]; Group C: OVA, ATO 2.5 mg/kg) was 37.0 ×1000 cells/ml, the “Neutrophil concentration in BALF” value ([1]; Group C: OVA, ATO 2.5 mg/kg) was 200.7 ×1000 cells/ml and the “Eosinophil concentration in BALF” value ([1]; Group C: OVA, ATO 2.5 mg/kg) was 28.6 ± 13.0 ×1000 cells/ml. The “Macrophage concentration in BALF” value ([1]; Group C: OVA, ATO 2.5 mg/kg) was 621.0 ± 199.6 ×1000 cells/ml, the “Lymphocyte concentration in BALF” value ([1]; Group D: OVA, ATO 5 mg/kg) was 28.7 ×1000 cells/ml and the “Neutrophil concentration in BALF” value ([1]; Group D: OVA, ATO 5 mg/kg) was 244.0 ×1000 cells/ml. For the same substance, the “Eosinophil concentration in BALF” value ([1]; Group D: OVA, ATO 5 mg/kg) was 33.2 ± 12.5 ×1000 cells/ml, the “Macrophage concentration in BALF” value ([1]; Group D: OVA, ATO 5 mg/kg) was 499.1 ± 131.6 ×1000 cells/ml and the “effect on eosinophil number in BALF” value ([1]; group C and D vs group B) was “diminish significantly the eosinophil number”. The “24 hr % cell death” value ([2]; 0.5 μM) was 7.3 ± 1.2%, the “48 hr % cell death” value ([2]; 0.5 μM) was 7.6 ± 0.6% and the “24 hr % cell death” value ([2]; 2.5 μM) was 13.7 ± 1.6%. For the same substance, the “48 hr % cell death” value ([2]; 2.5 μM) was 15.2 ± 2.3%, the “24 hr % cell death” value ([2]; 5.0 μM) was 14.6 ± 2.1% and the “48 hr % cell death” value ([2]; 5.0 μM) was 17.2 ± 1.9%. The “24 hr % cell death” value ([2]; 10 μM) was 17.8 ± 1.8%, the “48 hr % cell death” value ([2]; 10 μM) was 20.3 ± 2.6% and the “OVA-specific IgE (SI.) in serum, Mean” value [3, 8] was 2.20 SI. The “OVA-specific IgE (SI.) in serum, Mean” value [3, 9] was 1.96 SI, the “killing effect on Trypanosoma brucei (viable cell count)” value ([4]; 0.1 mg/ml/day for 3 days, over 7 days) was “complete killing effect” and the “death morphology on cytology observation” value ([4]; cultured Trypanosoma brucei) was “Cells became thread-like”. For the same substance, the “killing dosage compared with Melarsoprol” value ([4]; cultured Trypanosoma brucei) was “comparable, if not better”, the “killing potency versus 3 doses regimen” value ([4]; one dose regimen of 0.3 mg/ml) was “less killing potency at least one log difference” and the “eotaxin in BALF, Mean” value [5, 8] was 12.38* pg/ml. For the same substance, the “eotaxin in BALF, Mean” value [5, 9] was 16.00 pg/mL, the “effect on eotaxin level after antigen challenge” value ([5]; especially 2.5 mg/kg, group C vs group B p<0.05) was “diminish the eotaxin level” and the “survival rate (%)” value ([6]; 2.5 mg/kg, 0 weeks) was 100%. For the same substance, the “survival rate (%)” value ([6]; 2.5 mg/kg, 22 weeks) was 100%, the “survival rate (%)” value ([6]; 2.5 mg/kg, 31 weeks) was 100% and the “survival rate (%)” value ([6]; 2.5 mg/kg, 38 weeks) was 83.3%. For the same substance, the “survival rate (%)” value ([6]; 2.5 mg/kg, 39 weeks) was 66.7%, the “survival rate (%)” value ([6]; 2.5 mg/kg, 40 weeks) was 66.7% and the “survival rate (%)” value ([6]; 2.5 mg/kg, 41 weeks) was 66.7%. For the same substance, the “survival rate (%)” value ([6]; 2.5 mg/kg, 42 weeks) was 50%, the “survival rate (%)” value ([6]; 5 mg/kg, 0 weeks) was 100% and the “survival rate (%)” value ([6]; 5 mg/kg, 22 weeks) was 100%. The “survival rate (%)” value ([6]; 5 mg/kg, 31 weeks) was 66.7%, the “survival rate (%)” value ([6]; 5 mg/kg, 38 weeks) was 66.7% and the “survival rate (%)” value ([6]; 5 mg/kg, 39 weeks) was 66.7%. For the same substance, the “survival rate (%)” value ([6]; 5 mg/kg, 40 weeks) was 66.7%, the “survival rate (%)” value ([6]; 5 mg/kg, 41 weeks) was 66.7% and the “survival rate (%)” value ([6]; 5 mg/kg, 42 weeks) was 66.7%. For the same substance, the “treated mice still alive” value ([6]; after 43 weeks) was 50%, the “Levels of T cell apoptosis (%) after 48 hr treatment” value ([7]; 1 μM) was 36.1% and the “Levels of T cell apoptosis (%) after 48 hr treatment” value ([7]; 5 μM) was 96% and 96.2%.
